Laboratory results as given in ChEMBL document CHEMBL1255378, “Emergence of the plasmid-mediated quinolone resistance gene qnrS1 in Escherichia coli isolates in Greece” (2008).
In brackets after ≈: the same amount, converted by molar mass.

Columns and labels:
Escherichia coli [1] = assay: Antimicrobial activity against qnrS1-positive ampicillin and amoxicillin-resistant Escherichia coli isolate 6 expressing gyrA S83L/D87N and parC S80I mutants by Etest
Escherichia coli [2] = assay: Antimicrobial activity against qnrS1-positive ampicillin-resistant Escherichia coli isolate 7 expressing gyrA S83L/D87N and parC S80I mutants by Etest
Escherichia coli [3] = assay: Antimicrobial activity against qnrS1-positive multidrug-resistant Escherichia coli isolate 3 expressing beta-lactamase CTX-M-15, gyrA S83L/D87N and parC S80I mutant by Etest
Escherichia coli [4] = assay: Antimicrobial activity against qnrS1-positive multidrug-resistant Escherichia coli isolate 4 expressing gyrA S83L/D87N and parC S80I mutants by Etest
Escherichia coli [5] = assay: Antimicrobial activity against qnrS1-positive multidrug-resistant Escherichia coli isolate 9 expressing gyrA S83L/D87N and parC S80I mutants by Etest
Escherichia coli [6] = assay: Antimicrobial activity against qnrS1-positive ampicillin-resistant Escherichia coli isolate 8 expressing gyrA S83L/D87N and parC S80I mutants by Etest
Escherichia coli [7] = assay: Antimicrobial activity against Escherichia coli harboring plasmid carrying qnrS1 gene by Etest
Escherichia coli [8] = assay: Antimicrobial activity against qnrS1-positive multidrug-resistant Escherichia coli isolate 10 expressing gyrA S83L/D87N and parC S80I mutants by Etest

## O=C(O)c1cn(C2CC2)c2cc(N3CCNCC3)c(F)cc2c1=O [CIPROFLOXACIN]
Escherichia coli [1]
  MIC: 64 µg/mL (≈ 193 µM)
Escherichia coli [2]
  MIC: 128 µg/mL (≈ 386 µM)
Escherichia coli [3]
  MIC: 64 µg/mL (≈ 193 µM)
Escherichia coli [4]
  MIC: 64 µg/mL (≈ 193 µM)
Escherichia coli [5]
  MIC: 128 µg/mL (≈ 386 µM)
Escherichia coli [6]
  MIC: 128 µg/mL (≈ 386 µM)
Escherichia coli [7]
  MIC: 0.032 µg/mL (≈ 0.0966 µM)
Escherichia coli [8]
  MIC: 128 µg/mL (≈ 386 µM)
